Results from patent publication EP1863471B9, “USE OF ANGELIC ACID ESTERS AS AN ANTIPHLOGISTIC ACTIVE INGREDIENT AND ANTIPHLOGISTIC PREPARATIONS” (Miltitz Aromatics GmbH, priority 2005, dated 2006).
Like-named read-outs stand apart in the source and are kept apart here.

Key:
[1] = system: Carrageenin-induzierten Rattenpfotenödem; experiment: Carrageenin-induced rat paw oedema, oral administration of test substance; assay type: in vivo, Ratte; details: for ED50: oral administration, calculated from dose-dependent percent inhibition of oedema development, own tests
Source text: Die antiinflammatorische Wirkung von Isobutylangelat wurde am Carrageenin-induzierten ([…]) Rattenpfotenödem getestet. Isobutylangelat wurde oral verabreicht.
Die Testbedingungen entsprachen den in der Literatur verwendeten, so dass Quervergleiche hergestellt werden konnten. (V. Jakovlev et al. in Journal of Medicinal Plant Research 35 (1979), 125-140).
Als Vergleichssubstanz in den eigenen Tests diente (-)-alpha-Bisabolol. Dosisabhängig wurde die prozentuale Hemmung der Ödementwichlung bestimmt. Daraus ließ sich der ED50 Wert errechnen.
Dosierungen von 100, 464, 1000 und 2150 mg Isobutylangelat/kg Körpergewicht wurden getestet. Die Ergebnisse wurden mit den für eine Kontrollgruppe (0,8 % Hydroxypropylmethylcellulose Gel) und zusätzlich den für die positive Kontrolle ((-)-alpha- Bisabolol) erhaltenen Werten verglichen.

[2] = system: Carrageenin-induzierten Rattenpfotenödem; details: literature values from V. Jakovlev et al., Journal of Medicinal Plant Research 35 (1979), 125-140, corresponding test conditions, cited from earlier work

Question: With `C/C=C(/C)C(=O)OCC(C)C` [Isobutylangelat] as the compound, how does the ED50 [1] read?
Answer: 2310 mg/kg

Question: And the minimal effective dose ([1]; oral, doses tested 100, 464, 1000 and 2150 mg/kg body weight, read-out: dosisabhängige antiinflammatorische Wirkung, beginnend bei)?
Answer: ≥ 100 mg/kg

Question: Which ED50 [1] does the source give for `CC(C)=CCC[C@](C)(O)[C@@H]1CC=C(C)CC1` [(-)-alpha-Bisabolol] here?
Answer: 1540 mg/kg

Question: And the “ED50” value ([2]; listed as (-) alpha Bisabolol)?
Answer: 1465 mg/kg

Question: For `CC(C)=CCC[C@](C)(O)[C@@H]1CC=C(C)CC1` [Dragosantol], which “ED50” value [2] is on record?
Answer: > 3000 mg/kg

Question: Which “ED50” value [2] does the source give for `CC1=CCC(C2(C)CCC(C(C)(C)O)O2)CC1` (stereo not drawn) [Bisabololoxid B] here?
Answer: > 2000 mg/kg

Question: Which “ED50” value [2] does the source give for `CC1=CCC(C2(C)CCC(O)C(C)(C)O2)CC1` (stereo not drawn) [Bisabololoxid A] here?
Answer: 3164 mg/kg

Question: Which “ED50” value [2] does the source give for `CC1=CC[C@@H]([C@]2(C)CCC(=O)C(C)(C)O2)CC1` [Bisabolonoxid] here?
Answer: > 2000 mg/kg

Question: With `CC(C)=CCC[C@@](C)(O)[C@H]1CC=C(C)CC1` [(+) alpha Bisabolol] as the compound, how does the “ED50” value [2] read?
Answer: > 2000 mg/kg
